According to patent publication US20220009894A1, “1,2,3,4-TETRAHYDROQUINOXALINE DERIVATIVE, PREPARATION METHOD THEREFOR AND APPLICATION THEREOF” (Abbisko Therapeutics Co., Ltd., priority 2019, published 2022):

Legend:
[1] = molecular target: T1, RORγt-LBD (Homo sapiens, UniProt P51449); assay: Time-resolved fluorescence resonance energy-transfer assay (TR-FRET), co-activator peptide recruitment; assay type: biochemical; set-up: TR-FRET Biochemical Amax: unit not given here; conditions: for EC50: His-RORγt-LBD 30 nM, SRC peptide 500 nM, agonistic activity, averages of one or more measurements, read-out: TR-FRET Biochemical EC50/; for TR-FRET Biochemical Amax: upper activation limit, His-RORγt-LBD, SRC peptide
T1 sequence (P51449 269-508 limits assumed): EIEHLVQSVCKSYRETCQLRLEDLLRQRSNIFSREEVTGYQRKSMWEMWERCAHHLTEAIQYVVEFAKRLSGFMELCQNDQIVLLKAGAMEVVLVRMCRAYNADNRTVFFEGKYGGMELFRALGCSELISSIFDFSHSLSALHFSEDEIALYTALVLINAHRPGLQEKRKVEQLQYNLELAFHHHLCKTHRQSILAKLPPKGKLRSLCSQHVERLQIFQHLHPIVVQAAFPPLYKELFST
Method in brief: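 This agonist-mode TR-FRET used 30 nM His-tagged RORγt-LBD, 500 nM biotinylated SRC peptide, 0.25 nM Eu-anti-His and 5 nM APC-streptavidin in pH 7.0 Tris/KCl buffer with DTT and Triton. A 7-concentration, 5-fold compound series was incubated at 4 °C overnight plus 1 h at room temperature, and the 665/615 nm signal was read.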

[2] = molecular target: T2, RORγt (Homo sapiens, UniProt P51449); assay: RORγt cellular reporter gene detection assay; assay type: cell-based; conditions: 24 hrs; for EC50: HEK 293 cells co-transfected with pFN26A-RORγt-LBD and pG14.35, in presence of antagonist Ursolic acid, top concentration 50 μM; for Cellular Reporter Assay Amax: upper activation limit, HEK 293 cells, in presence of antagonist Ursolic acid;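 for Cellular Reporter Assay Amax: Ursolic Acid added as 5 µL of 20 µM medium per well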
T2 construct: The plasmid of pFN26A-RORγt-LBD and pG14.35 (Promega, Cat. No. E1370) were co-transfected into HEK 293 cells; expressed in transfected cells; host or cells: HEK 293 cells (Cat. No. GNHu18)
T2 sequence (P51449 269-508 limits assumed): T1 sequence (P51449 269-508 limits assumed)
Method in brief: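 Compounds, titrated 4-fold from a 50 μM top concentration, were added with Ursolic acid to HEK293 cells carrying a RORγt-LBD plasmid and a reporter plasmid. After 24 h at 37° C, dual firefly/Renilla luciferase readout; four-parameter curves gave EC50 and maximal activation (Amax).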

EC50 [1] | TR-FRET Biochemical Amax [1] | EC50 [2] | Cellular Reporter Assay Amax [2] | SMILES
0.0375 µM | 1.21 | 0.366 µM | 3.7 | C/C(=C\c1ccc2c(c1)N(S(=O)(=O)c1cccc(C(F)(F)F)c1)C[C@@H]1CN(C[C@@H](O)CO)CCN21)c1c(F)cccc1Cl [Example 37, (R)-3-((S)-8-((E)-2-(2-chloro-6-fluorophenyl)prop-1-en-1-yl)-6-((3-(trifluoromethyl)phe-nyl)sulfonyl)-1,2,4,4a,5,6-hexa-hydro-3H-pyrazino[1,2-a]qui-noxalin-3-yl)propane-1,2-diol]
0.0407 µM | 1.23 | 0.29 µM | 3.7 | C/C(=C\c1ccc2c(c1)N(S(=O)(=O)c1cccc(C(F)(F)F)c1)C[C@@H]1CN(C[C@H](O)CO)CCN21)c1c(F)cccc1Cl [Example 38, (S)-3-((S)-8-((E)-2-(2-chloro-6-fluorophenyl)prop-1-en-1-yl)-6-((3-(trifluoromethyl)phe-nyl)sulfonyl)-1,2,4,4a,5,6-hexa-hydro-3H-pyrazino[1,2-a]qui-noxalin-3-yl)propane-1,2-diol]
0.0336 µM | 0.58 | 1.24 µM | 2.2 | O=S(=O)(c1cccc(C(F)(F)F)c1)N1C[C@@H]2CN(C[C@@H](O)CO)CCN2c2ccc(-c3cc(F)cc(OC(F)F)c3)cc21 [Example 39, (R)-3-((S)-8-(3-(difluorome-thoxy)-5-fluorophenyl)-6-((3-(trifluoromethyl)phenyl)sulfonyl)-1,2,4,4a,5,6-hexahydro-3H-pyrazino[1,2-a]quinoxalin-3-yl) propane-1,2-diol]
0.013 µM | 0.76 | 0.733 µM | 2.5 | O=S(=O)(c1cccc(C(F)(F)F)c1)N1C[C@@H]2CN(C[C@H](O)CO)CCN2c2ccc(-c3cc(F)cc(OC(F)F)c3)cc21 [Example 40, (S)-3-((S)-8-(3-(difluoromethoxy)-5-fluorophenyl)-6-((3-(tri-fluoromethyl)phenyl)sulfonyl)-1,2,4,4a,5,6-hexahydro-3H-pyrazino[1,2-a]quinoxalin-3-yl) propane-1,2-diol]
0.00084 µM | 1.28 | 0.123 µM | 1.4 | CC1(C)C=C(c2ccc3c(c2)N(S(=O)(=O)c2cccc(C(F)(F)F)c2)C[C@@H]2CN(C[C@H](O)CO)CCN32)CC(C)(C)O1 [Example 42, (S)-3-((S)-8-(2,2,6,6-tetrameth-yl-3,6-dihydro-2H-pyran-4-yl)-6-((3-(trifluoromethyl)phenyl)sulfonyl)-1,2,4,4a,5,6-hexa-hydro-3H-pyrazino[1,2-a]qui-noxalin-3-yl)propane-1,2-diol]
0.0172 µM | 0.87 | 0.162 µM | 3.0 | CCOC(=O)CN1CCN2c3ccc(/C=C(\C)c4c(F)cccc4Cl)cc3N(S(=O)(=O)c3cccc(C(F)(F)F)c3)C[C@@H]2C1 [Example 43, ethyl (S,E)-2-(8-(2-(2-chloro-6-fluorophenyl)prop-1-en-1-yl)-6-((3-(trifluoromethyl)phenyl)sulfonyl)-1,2,4,4a,5,6-hexahydro-3H-pyrazino[1,2-a]quinoxalin-3-yl)acetate]
0.0235 µM | 1.04 | 0.256 µM | 4.2 | COC(=O)CN1CCN2c3ccc(/C=C(\C)c4c(F)cccc4Cl)cc3N(S(=O)(=O)c3cccc(C(F)(F)F)c3)C[C@@H]2C1 [Example 44, methyl (S,E)-2-(8-(2-(2-chloro-6-fluorophenyl)prop-1-en-1-yl)-6-((3-(trifluoromethyl)phenyl)sulfonyl)-1,2,4,4a,5,6-hexahydro-3H-pyrazino[1,2-a]quinoxalin-3-yl)acetate]
0.0105 µM |  | 0.375 µM |  | COC(=O)CN1CCN2c3ccc(/C=C/c4c(Cl)cccc4C(F)(F)F)cc3N(S(=O)(=O)c3cccc(C(F)(F)F)c3)C[C@@H]2C1 [Example 45, methyl (S,E)-2-(8-(2-chloro-6-(trifluoromethyl)styryl)-6-((3-(trifluoromethyl)phenyl)sulfonyl)-1,2,4,4a,5,6-hexahydro-3H-pyrazino[1,2-a]quinoxalin-3-yl) acetate]
0.00529 µM | 0.72 | 0.924 µM | 4.0 | CCOC(=O)CN1CCN2c3ccc(/C=C/c4c(Cl)cccc4C(F)(F)F)cc3N(S(=O)(=O)c3cccc(C(F)(F)F)c3)C[C@@H]2C1 [Example 46, ethyl (S,E)-2-(8-(2-chloro-6-(trifluoromethyl)styryl)-6-((3-(trifluoromethyl)phenyl)sulfonyl)-1,2,4,4a,5,6-hexahydro-3H-pyrazino [1,2-a]quinoxalin-3-yl)acetate]
0.00351 µM | 0.77 | 0.75 µM | 2.1 | CC(C)OC(=O)CN1CCN2c3ccc(/C=C/c4c(Cl)cccc4C(F)(F)F)cc3N(S(=O)(=O)c3cccc(C(F)(F)F)c3)C[C@@H]2C1 [Example 47, isopropyl (S,E)-2-(8-(2-chloro-6-(trifluoromethyl)styryl)-6-((3-(trifluoromethyl)phenyl)sulfonyl)-1,2,4,4a,5,6-hexahydro-3H-pyrazino[1,2-a]quinoxalin-3-yl) acetate]
0.0107 µM | 0.67 | 0.283 µM | 1.9 | C/C(=C\c1ccc2c(c1)N(S(=O)(=O)c1cccc(C(F)(F)F)c1)C[C@@H]1CN(CC(=O)OC(C)C)CCN21)c1c(F)cccc1Cl [Example 48, isopropyl (S,E)-2-(8-(2-(2-chloro-6-fluorophenyl)prop-1-en-1-yl)-6-((3-(trifluoromethyl)phe-nyl)sulfonyl)-1,2,4,4a,5,6-hexa-hydro-3H-pyrazino[1,2-a]quinox-alin-3-yl)acetate]
0.00547 µM | 0.61 | 0.238 µM | 5.2 | C/C(=C\c1ccc2c(c1)N(S(=O)(=O)c1cccc(C(F)(F)F)c1)C[C@@H]1CN(CC(=O)OCOC(=O)OC(C)C)CCN21)c1c(F)cccc1Cl [Example 49, ((isopropoxycarbonyl)oxy)methyl (S,E)-2-(8-(2-(2-chloro-6-fluorophenyl)prop-1-en-1-yl)-6-((3-(trifluoromethyl)phenyl)sulfonyl)-1,2,4,4a,5,6-hexahydro-3H-pyrazino[1,2-a]quinoxalin-3-yl)acetate]
0.00813 µM | 0.64 | 0.676 µM | 6.3 | CC(C)OC(=O)OCOC(=O)CN1CCN2c3ccc(/C=C/c4c(Cl)cccc4C(F)(F)F)cc3N(S(=O)(=O)c3cccc(C(F)(F)F)c3)C[C@@H]2C1 [Example 50, ((isopropoxycarbonyl)oxy)methyl (S,E)-2-(8-(2-chloro-6-(trifluoromethyl)styryl)-6-((3-(trifluoromethyl)phenyl)sulfonyl)-1,2,4,4a,5,6-hexahydro-3H-pyrazino[1,2-a]quinoxalin-3-yl)acetate]
